Among the test systems are HCT-15; NCI/ADR-RES; MCF7; A498; M14; EKVX; HOP-92; SR; SF-295; DU-145; RXF 393; NCI-H460; U-251; SW-620; K562; SK-MEL-2; PC-3; HT-29; HCC 2998.
Common to all, as to test: NCI tumour cell line growth inhibition, 48 h

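Compound exposure: 48 hours, 5 concentrations, 96-well plates. GI50: concentration for 50% inhibition of growth.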 Active and inactive are the calls of the source. Rule as the data show it: active = GI50 up to about 1.1 µM and inactive = higher.

As to `C[N+]1(C)CCOC(O)(c2ccccc2)C1` (centres undefined), the GI50 was over 100 µM in the assay on HCT-15; > 100 µM (inactive) in the assay on NCI/ADR-RES; > 100 µM (inactive) with MCF7; > 100 µM (inactive) in the assay on A498; > 100 µM (inactive) in the assay with M14; > 100 µM (inactive) in the assay on EKVX. In addition, the GI50 in the assay with HOP-92, in the assay on SR, with SF-295, in the assay on DU-145, with RXF 393 and in the assay with NCI-H460 was > 100 µM (inactive) throughout. Further, the GI50 in the assay on U-251, in the assay on SW-620, with K562, with SK-MEL-2, in the assay on PC-3 and in the assay on HT-29 was > 100 µM (inactive) throughout.
Turning to `CCOC(=O)/C=C(/OCC)[C@@H]1C(C(=O)c2ccc(Cl)cc2)[C@H]1/C(=C\C(=O)OCC)OCC` (some centres undefined), the GI50 with HCT-15 was over 100 µM; in the assay on NCI/ADR-RES, 29 µM (inactive); with MCF7, > 100 µM (inactive); in the assay with A498, > 100 µM (inactive); with M14, > 100 µM (inactive); in the assay on EKVX it was > 100 µM (inactive). Also, the GI50 in the assay with HOP-92 was > 34.7 µM (inactive); in the assay with SR, 8.73 µM (inactive); in the assay on SF-295, > 33.8 µM (inactive); with DU-145 it was > 100 µM (inactive); in the assay with RXF 393, 96.8 µM (inactive); in the assay on NCI-H460 it was > 100 µM (inactive). For the same molecule, the GI50 in the assay on U-251 is > 100 µM (inactive); with SW-620, > 100 µM (inactive); with K562 it was 4.55 µM (inactive); in the assay with SK-MEL-2, > 100 µM (inactive); with PC-3, > 30.5 µM (inactive); in the assay on HT-29, > 51.2 µM (inactive).
For `CC(C)=CCN(N=O)c1ncnc2[nH]cnc12`, the GI50 with NCI/ADR-RES is > 100 µM (inactive); with MCF7, > 100 µM (inactive); with A498, 95.1 µM (inactive); in the assay with M14 it was > 100 µM (inactive); with EKVX it was > 100 µM (inactive); with HOP-92, > 100 µM (inactive). Besides, the GI50 with SR is 75.3 µM (inactive); with SF-295 it was > 100 µM (inactive); in the assay on DU-145 it was > 100 µM (inactive); with RXF 393, > 100 µM (inactive); with NCI-H460, > 100 µM (inactive); with HCC 2998 it was > 100 µM (inactive). The GI50 in the assay with SW-620 was > 100 µM (inactive); in the assay on K562, 73.6 µM (inactive); in the assay with PC-3, 94.6 µM (inactive); in the assay with HT-29, > 100 µM (inactive).
For the molecule `NC1(C(=O)O)CCCC1C(=O)O` (centres undefined), the GI50 with HCT-15 is over 100 µM; with NCI/ADR-RES, > 100 µM (inactive); in the assay on MCF7, > 100 µM (inactive); in the assay with A498, > 100 µM (inactive); with M14, > 100 µM (inactive); with EKVX it was > 100 µM (inactive). Besides, the GI50 in the assay with HOP-92, in the assay on SR, in the assay with SF-295, with DU-145, in the assay on RXF 393 and with NCI-H460 was > 100 µM (inactive) in each case. Also, the GI50 in the assay with U-251, in the assay with SW-620, in the assay on K562, in the assay on SK-MEL-2, in the assay on PC-3 and in the assay with HT-29 was > 100 µM (inactive) each time.
`Cc1cc(N(CCC#N)CCC#N)ccc1C(/N=N\c1ccc(C(=O)O)cc1)=N\NC(=O)c1cc(Cl)ccc1O`: the GI50 in the assay on HCT-15 is over 100 µM; in the assay on NCI/ADR-RES, 37.6 µM (inactive); with MCF7 it was 32.4 µM (inactive); in the assay on A498, 28.6 µM (inactive); in the assay on M14, > 100 µM (inactive); with EKVX, 33 µM (inactive). Further, the GI50 in the assay on SR was 62.8 µM (inactive); in the assay with SF-295, 12.4 µM (inactive); with DU-145 it was 64 µM (inactive); in the assay with RXF 393 it was 25.4 µM (inactive); in the assay on NCI-H460, 36 µM (inactive); with U-251, 24.9 µM (inactive). Besides, the GI50 in the assay on HCC 2998 is > 100 µM (inactive); in the assay with K562 it was > 100 µM (inactive); in the assay with SK-MEL-2 it was 83.6 µM (inactive); in the assay with PC-3 it was 61 µM (inactive); with HT-29, > 100 µM (inactive).
As to `C=C(Cl)C(Cl)(CBr)CCCC(C)C` (centres undefined), the GI50 in the assay with HCT-15 was over 49.3 µM; in the assay on NCI/ADR-RES, 27 µM (inactive); in the assay with MCF7, 12.4 µM (inactive); in the assay on A498, 19.4 µM (inactive); in the assay with M14 it was > 100 µM (inactive); in the assay with EKVX it was 18.3 µM (inactive). For the same molecule, the GI50 in the assay with HOP-92 was 17.2 µM (inactive); in the assay with SR, > 75.7 µM (inactive); with SF-295, 15.8 µM (inactive); with DU-145, 11.5 µM (inactive); in the assay on RXF 393 it was 7.69 µM (inactive); in the assay on NCI-H460, 15.7 µM (inactive). In addition, the GI50 in the assay on U-251 was 8.73 µM (inactive); with HCC 2998, 19.6 µM (inactive); with SW-620, 40.1 µM (inactive); in the assay on K562 it was 26.5 µM (inactive); in the assay with PC-3 it was 13.2 µM (inactive); in the assay with HT-29 it was 4.42 µM (inactive).
Regarding `CCOc1ccc(N2C(=O)NC3(c4ccccc4)N(C)C(=O)N(C)C23c2ccccc2)cc1` (centres undefined), the GI50 with NCI/ADR-RES was 63.1 µM (inactive); with MCF7 it was 46.2 µM (inactive); with A498, > 100 µM (inactive); with M14, > 100 µM (inactive); with EKVX, > 100 µM (inactive); with HOP-92, > 100 µM (inactive). For the same molecule, the GI50 in the assay with SR was > 100 µM (inactive); in the assay on SF-295 it was 97.3 µM (inactive); with DU-145 it was > 100 µM (inactive); in the assay on RXF 393 it was 66.4 µM (inactive); in the assay on U-251, > 100 µM (inactive); in the assay on SW-620 it was > 100 µM (inactive). Moreover, the GI50 is 74 µM (inactive) in the assay on K562, > 100 µM (inactive) in the assay on SK-MEL-2, 41 µM (inactive) in the assay with PC-3 and 94.2 µM (inactive) in the assay with HT-29.
As for `COc1ccc(-c2nc3cc(F)ccc3s2)cc1O`, the GI50 in the assay with HCT-15 was 3.05 µM; in the assay on NCI/ADR-RES, 46.3 µM (inactive); in the assay on MCF7, 0.668 µM (active); in the assay with A498, 29.7 µM (inactive); with M14 it was 26.5 µM (inactive); in the assay on EKVX, 6.59 µM (inactive). Besides, the GI50 in the assay on SR was 19.1 µM (inactive); with SF-295, 22.5 µM (inactive); in the assay with DU-145, 38 µM (inactive); in the assay with RXF 393 it was 36.8 µM (inactive); with NCI-H460, 21.3 µM (inactive); in the assay with U-251, 30.1 µM (inactive). Also, the GI50 in the assay with HCC 2998 was 2.57 µM (inactive); in the assay with SW-620 it was 87.9 µM (inactive); in the assay with K562 it was 73.1 µM (inactive); in the assay on SK-MEL-2 it was 27.9 µM (inactive); with PC-3, 34.7 µM (inactive); in the assay with HT-29, 26.4 µM (inactive).
